Measurements as given in PubChem BioAssay (NCI).
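Method: 48-hour compound exposure of cells in 96-well plates, five concentrations, linear interpolation of endpoints. GI50 marks 50% less growth. TGI marks complete inhibition of growth.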

What was measured:
Assay in all cases: inhibition of tumour cell growth, NCI panel, 48 h
786-0 renal = system: 786-0 renal
A498 renal = system: A498 renal
A549 NSCLC = system: A549 NSCLC
ACHN renal = system: ACHN renal
BT-549 breast = system: BT-549 breast
CAKI-1 renal = system: CAKI-1 renal
CCRF-CEM leukemia = system: CCRF-CEM leukemia
COLO 205 colon = system: COLO 205 colon
DU-145 prostate = system: DU-145 prostate
EKVX NSCLC = system: EKVX NSCLC
HCC-2998 colon = system: HCC-2998 colon
HCT-116 colon = system: HCT-116 colon
HCT-15 colon = system: HCT-15 colon
HOP-62 NSCLC = system: HOP-62 NSCLC
HOP-92 NSCLC = system: HOP-92 NSCLC
HS 578T breast = system: HS 578T breast
HT29 colon = system: HT29 colon
IGROV1 ovarian = system: IGROV1 ovarian
K-562 leukemia = system: K-562 leukemia
KM12 colon = system: KM12 colon
LOX IMVI melanoma = system: LOX IMVI melanoma
M14 melanoma = system: M14 melanoma
MALME-3M melanoma = system: MALME-3M melanoma
MCF7 breast = system: MCF7 breast
MDA-MB-231 breast = system: MDA-MB-231 breast
MDA-MB-435 = system: MDA-MB-435
MOLT-4 leukemia = system: MOLT-4 leukemia
NCI-H226 lung = system: NCI-H226 lung
NCI-H23 lung = system: NCI-H23 lung
NCI-H460 lung = system: NCI-H460 lung
NCI-H522 lung = system: NCI-H522 lung
NCI/ADR-RES ovarian = system: NCI/ADR-RES ovarian
OVCAR-3 ovarian = system: OVCAR-3 ovarian
OVCAR-4 ovarian = system: OVCAR-4 ovarian
OVCAR-5 ovarian = system: OVCAR-5 ovarian
OVCAR-8 ovarian = system: OVCAR-8 ovarian
PC-3 prostate = system: PC-3 prostate
RPMI-8226 leukemia = system: RPMI-8226 leukemia
RXF 393 renal = system: RXF 393 renal
SF-268 CNS = system: SF-268 CNS
SF-295 CNS = system: SF-295 CNS
SF-539 CNS = system: SF-539 CNS
SK-MEL-2 melanoma = system: SK-MEL-2 melanoma
SK-MEL-28 melanoma = system: SK-MEL-28 melanoma
SK-MEL-5 melanoma = system: SK-MEL-5 melanoma
SK-OV-3 ovarian = system: SK-OV-3 ovarian
SN12C renal = system: SN12C renal
SNB-19 CNS = system: SNB-19 CNS
SNB-75 CNS = system: SNB-75 CNS
SR leukemia = system: SR leukemia
SW-620 colon = system: SW-620 colon
T-47D breast = system: T-47D breast
TK-10 renal = system: TK-10 renal
U251 CNS = system: U251 CNS
UACC-257 melanoma = system: UACC-257 melanoma
UACC-62 melanoma = system: UACC-62 melanoma
UO-31 renal = system: UO-31 renal

Compound: CCC(=O)OCC1OC(n2cnc3c(=S)nc(N)[nH]c32)C(OC(=O)CC)C1OC(=O)CC (centres undefined)
- GI50 (786-0 renal): 8.09 µM
- TGI (786-0 renal): > 100 µM
- GI50 (A498 renal): 15.6 µM
- TGI (A498 renal): > 100 µM
- GI50 (A549 NSCLC): 71.8 µM
- TGI (A549 NSCLC): > 100 µM
- GI50 (ACHN renal): 5.28 µM
- TGI (ACHN renal): 93.1 µM
- GI50 (BT-549 breast): 5.42 µM
- TGI (BT-549 breast): > 100 µM
- GI50 (CAKI-1 renal): 3.52 µM
- TGI (CAKI-1 renal): > 100 µM
- GI50 (CCRF-CEM leukemia): 2.12 µM
- TGI (CCRF-CEM leukemia): 28.2 µM
- GI50 (COLO 205 colon): 3.57 µM
- TGI (COLO 205 colon): 18.4 µM
- GI50 (DU-145 prostate): 2.51 µM
- TGI (DU-145 prostate): 47.7 µM
- GI50 (EKVX NSCLC): 10.7 µM
- TGI (EKVX NSCLC): > 100 µM
- GI50 (HCC-2998 colon): 15.2 µM
- TGI (HCC-2998 colon): 73.1 µM
- GI50 (HCT-116 colon): 4.25 µM
- TGI (HCT-116 colon): > 100 µM
- GI50 (HCT-15 colon): 9.39 µM
- TGI (HCT-15 colon): > 100 µM
- GI50 (HOP-62 NSCLC): 2.71 µM
- TGI (HOP-62 NSCLC): 67.3 µM
- GI50 (HOP-92 NSCLC): 0.892 µM
- TGI (HOP-92 NSCLC): 20.9 µM
- GI50 (HS 578T breast): 23.8 µM
- TGI (HS 578T breast): > 100 µM
- GI50 (HT29 colon): 14.7 µM
- TGI (HT29 colon): > 100 µM
- GI50 (IGROV1 ovarian): 7.49 µM
- TGI (IGROV1 ovarian): 44.5 µM
- GI50 (K-562 leukemia): 6.69 µM
- TGI (K-562 leukemia): > 100 µM
- GI50 (KM12 colon): 6.06 µM
- TGI (KM12 colon): 44.4 µM
- GI50 (LOX IMVI melanoma): 2.17 µM
- TGI (LOX IMVI melanoma): > 100 µM
- GI50 (M14 melanoma): 2.33 µM
- TGI (M14 melanoma): 24.6 µM
- GI50 (MALME-3M melanoma): 2.45 µM
- TGI (MALME-3M melanoma): > 100 µM
- GI50 (MCF7 breast): 3.57 µM
- TGI (MCF7 breast): 41.7 µM
- GI50 (MDA-MB-231 breast): 5.44 µM
- TGI (MDA-MB-231 breast): > 100 µM
- GI50 (MDA-MB-435): 4.73 µM
- TGI (MDA-MB-435): > 100 µM
- GI50 (MOLT-4 leukemia): 5.31 µM
- TGI (MOLT-4 leukemia): > 100 µM
- GI50 (NCI-H226 lung): 2.62 µM
- TGI (NCI-H226 lung): > 100 µM
- GI50 (NCI-H23 lung): 9.73 µM
- TGI (NCI-H23 lung): > 100 µM
- GI50 (NCI-H460 lung): 6.62 µM
- TGI (NCI-H460 lung): > 100 µM
- GI50 (NCI-H522 lung): 2.89 µM
- TGI (NCI-H522 lung): 18.6 µM
- GI50 (NCI/ADR-RES ovarian): 14.8 µM
- TGI (NCI/ADR-RES ovarian): > 100 µM
- GI50 (OVCAR-3 ovarian): 3.03 µM
- TGI (OVCAR-3 ovarian): 17.7 µM
- GI50 (OVCAR-4 ovarian): 4.95 µM
- TGI (OVCAR-4 ovarian): 81.3 µM
- GI50 (OVCAR-5 ovarian): 9.15 µM
- TGI (OVCAR-5 ovarian): > 100 µM
- GI50 (OVCAR-8 ovarian): 7.1 µM
- TGI (OVCAR-8 ovarian): > 100 µM
- GI50 (PC-3 prostate): 5.2 µM
- TGI (PC-3 prostate): > 100 µM
- GI50 (RPMI-8226 leukemia): 3.79 µM
- TGI (RPMI-8226 leukemia): 67.2 µM
- GI50 (RXF 393 renal): 6.06 µM
- TGI (RXF 393 renal): > 100 µM
- GI50 (SF-268 CNS): 3.95 µM
- TGI (SF-268 CNS): > 100 µM
- GI50 (SF-295 CNS): 5.27 µM
- TGI (SF-295 CNS): > 100 µM
- GI50 (SF-539 CNS): 4.88 µM
- TGI (SF-539 CNS): 52.1 µM
- GI50 (SK-MEL-2 melanoma): 2.89 µM
- TGI (SK-MEL-2 melanoma): 46.4 µM
- GI50 (SK-MEL-28 melanoma): 37.5 µM
- TGI (SK-MEL-28 melanoma): > 100 µM
- GI50 (SK-MEL-5 melanoma): 13.9 µM
- TGI (SK-MEL-5 melanoma): 34 µM
- GI50 (SK-OV-3 ovarian): 2.36 µM
- TGI (SK-OV-3 ovarian): 14.5 µM
- GI50 (SN12C renal): 12.4 µM
- TGI (SN12C renal): > 100 µM
- GI50 (SNB-19 CNS): 80.9 µM
- TGI (SNB-19 CNS): > 100 µM
- GI50 (SNB-75 CNS): 3 µM
- TGI (SNB-75 CNS): 88.9 µM
- GI50 (SR leukemia): 0.828 µM
- TGI (SR leukemia): > 100 µM
- GI50 (SW-620 colon): 16.3 µM
- TGI (SW-620 colon): > 100 µM
- GI50 (T-47D breast): 3.17 µM
- TGI (T-47D breast): 43.8 µM
- GI50 (TK-10 renal): 3.63 µM
- TGI (TK-10 renal): > 100 µM
- GI50 (U251 CNS): 21.5 µM
- TGI (U251 CNS): > 100 µM
- GI50 (UACC-257 melanoma): 35.4 µM
- TGI (UACC-257 melanoma): > 100 µM
- GI50 (UACC-62 melanoma): 2.29 µM
- TGI (UACC-62 melanoma): 14.4 µM
- GI50 (UO-31 renal): 1.97 µM
- TGI (UO-31 renal): 54.2 µM
